Laboratory results: patent US20250311727A1, “SUBSTITUTED 2-AMINOAZINES AND SALTS THEREOF, AND USE THEREOF AS HERBICIDAL ACTIVE SUBSTANCES” (BAYER AKTIENGESELLSCHAFT, priority 2022, published 2025)

Legend:
Assay type in all cases: in vivo
Kochia scoparia [1] = assay: Post-emergence herbicidal efficacy at 320 g/ha, KCHSC; details: rated visually after about 3 weeks vs untreated controls, 100% = plants have died
From the text: (§1) Unwanted plants/weeds: • ABUTH: Abutilon theophrasti • ALOMY: Alopecurus myosuroides • AMARE: Amaranthus retroflexus • DIGSA: Digitaria sanguinalis • ECHCG: Echinochloa crus-galli • KCHSC: Kochia scoparia • LOLRI: Lolium rigidum • MATIN: Matricaria inodora • POAAN: Poa annua • POLCO: Polygonum convolvulus • SETVI: Setaria viridis • STEME: Stellaria media • VERPE: Veronica persica • VIOTR: Viola tricolor A. Post-Emergence Herbicidal Efficacy at 320 g/ha
(§2) Seeds of mono- and dicotyledonous weed plants were placed in plastic pots in sandy loam soil (doubly sown with in each case one species of mono- or dicotyledonous weed plants per pot), covered with soil and cultivated in a greenhouse under controlled growth conditions. 2 to 3 weeks after sowing, the test plants were treated at the one-leaf stage. The compounds of the invention, formulated in the form of wettable powders (WP) or as emulsion concentrates (EC), were applied to the green parts of the plants as aqueous suspension or emulsion with addition of 0.5% additive at a water application rate equivalent to 600 litres per hectare. After the test plants had been kept in the greenhouse under optimum growth conditions for about 3 weeks, the activity of the preparations was rated visually in comparison to untreated controls.
(§3) For example, 100% activity=the plants have died, 0% activity=like control plants.
(§4) Tables A1 to A10 below show the effects of selected compounds of the general formula (I) according to Table 1 on various harmful plants and at an application rate corresponding to 320 g/ha, which were obtained by the trial procedure specified above.

Amaranthus retroflexus [2] = assay: Post-emergence herbicidal efficacy at 320 g/ha, AMARE; details: rated visually after about 3 weeks vs untreated controls, 100% = plants have died
From the text: as §1, §2, §3, §4

Veronica persica [3] = assay: Post-emergence herbicidal efficacy at 320 g/ha, VERPE; details: rated visually after about 3 weeks vs untreated controls, 100% = plants have died
From the text: as §1, §2, §3, §4

Digitaria sanguinalis [4] = assay: Pre-emergence herbicide efficacy at 320 g/ha, DIGSA; details: scored visually after about 3 weeks vs untreated controls, 100% = plants have died
From the text: as §1
(§5) Seeds of mono- and dicotyledonous weed plants were placed in plastic pots in sandy loam soil (doubly sown with one species each of mono- or dicotyledonous weed plants per pot) and covered with soil. The compounds of the invention, formulated in the form of wettable powders (WP) or as emulsion concentrates (EC), were then applied to the surface of the covering soil as aqueous suspension or emulsion with addition of 0.5% additive at a water application rate of 600 litres per hectare (converted). After the treatment, the pots were placed in a greenhouse and kept under good growth conditions for the test plants. After about 3 weeks, the efficacy of the preparations was scored visually in comparison with untreated controls as percentages.
as §3
(§6) Tables C1 to C12 below show the effects of selected compounds of the general formula (I) according to Table 1 on various harmful plants and at an application rate corresponding to 320 g/ha, which were obtained by the trial procedure specified above.

Kochia scoparia [5] = assay: Pre-emergence herbicide efficacy at 320 g/ha, KCHSC; details: scored visually after about 3 weeks vs untreated controls, 100% = plants have died
From the text: as §1, §5, §3, §6

Amaranthus retroflexus [6] = assay: Pre-emergence herbicide efficacy at 320 g/ha, AMARE; details: scored visually after about 3 weeks vs untreated controls, 100% = plants have died
From the text: as §1, §5, §3, §6

Stellaria media [7] = assay: Pre-emergence herbicide efficacy at 320 g/ha, STEME; details: scored visually after about 3 weeks vs untreated controls, 100% = plants have died
From the text: as §1, §5, §3, §6

Setaria viridis [8] = assay: Pre-emergence herbicide efficacy at 320 g/ha, SETVI; details: scored visually after about 3 weeks vs untreated controls, 100% = plants have died
From the text: as §1, §5, §3, §6

Abutilon theophrasti [9] = assay: Post-emergence herbicidal efficacy at 320 g/ha, ABUTH; details: rated visually after about 3 weeks vs untreated controls, 100% = plants have died
From the text: as §1, §2, §3, §4

Abutilon theophrasti [10] = assay: Pre-emergence herbicide efficacy at 320 g/ha, ABUTH; details: scored visually after about 3 weeks vs untreated controls, 100% = plants have died
From the text: as §1, §5, §3, §6

Poa annua = assay: Pre-emergence herbicide efficacy at 320 g/ha, POAAN; details: scored visually after about 3 weeks vs untreated controls, 100% = plants have died
From the text: as §1, §5, §3, §6

Amaranthus retroflexus [11] = assay: Post-emergence herbicidal efficacy at 80 g/ha, AMARE; details: rated visually after about 3 weeks vs untreated controls, 100% = plants have died
From the text: as §1
(§7) Seeds of monocotyledonous and dicotyledonous weeds and crop plants were placed in sandy loam in plastic or organic planting pots, covered with soil and cultivated in a greenhouse under controlled growth conditions. 2 to 3 weeks after sowing, the test plants were treated at the one-leaf stage. The compounds of the invention, formulated in the form of wettable powders (WP) or as emulsion concentrates (EC), were then sprayed onto the green parts of the plants as aqueous suspension or emulsion with addition of 0.5% additive at a water application rate of 600 l/ha (converted). After the test plants had been kept in the greenhouse under optimum growth conditions for about 3 weeks, the activity of the preparations was rated visually in comparison to untreated controls. For example, 100% activity=the plants have died, 0% activity=like control plants.
(§8) Tables B1 to B11 below show the effects of selected compounds of the general formula (I) according to Table 1 on various harmful plants and an application rate corresponding to 80 g/ha, which were obtained by the experimental procedure mentioned above.

Stellaria media [12] = assay: Post-emergence herbicidal efficacy at 320 g/ha, STEME; details: rated visually after about 3 weeks vs untreated controls, 100% = plants have died
From the text: as §1, §2, §3, §4

Veronica persica [13] = assay: Pre-emergence herbicide efficacy at 320 g/ha, VERPE; details: scored visually after about 3 weeks vs untreated controls, 100% = plants have died
From the text: as §1, §5, §3, §6

Veronica persica [14] = assay: Post-emergence herbicidal efficacy at 80 g/ha, VERPE; details: rated visually after about 3 weeks vs untreated controls, 100% = plants have died
From the text: as §1, §7, §8

Setaria viridis [15] = assay: Pre-emergence herbicide efficacy at 80 g/ha, SETVI
From the text: as §1
(§9) Seeds of monocotyledonous and dicotyledonous weed plants and crop plants were placed in plastic or organic planting pots and covered with soil. The compounds of the invention, formulated in the form of wettable powders (WP) or as emulsion concentrates (EC), were then applied to the surface of the covering soil as aqueous suspension or emulsion with addition of 0.5% additive at a water application rate equivalent to 600 l/ha. After the treatment, the pots were placed in a greenhouse and kept under good growth conditions for the test plants. After about 3 weeks, the efficacy of the preparations was scored visually in comparison with untreated controls as percentages. For example, 100% activity=the plants have died, 0% activity=like control plants.
(§10) Tables D1 to D12 below show the effects of selected compounds of the general formula (I) according to Table 1 on various harmful plants and an application rate corresponding to 80 g/ha, which were obtained by the experimental procedure mentioned above.

Viola tricolor = assay: Pre-emergence herbicide efficacy at 80 g/ha, VIOTR
From the text: as §1, §9, §10

Kochia scoparia [16] = assay: Post-emergence herbicidal efficacy at 80 g/ha, KCHSC; details: rated visually after about 3 weeks vs untreated controls, 100% = plants have died
From the text: as §1, §7, §8

Amaranthus retroflexus [17] = assay: Pre-emergence herbicide efficacy at 80 g/ha, AMARE; details: scored visually after about 3 weeks vs untreated controls, 100% = plants have died
From the text: as §1, §9, §10

Echinochloa crus-galli [18] = assay: Pre-emergence herbicide efficacy at 320 g/ha, ECHCG; details: scored visually after about 3 weeks vs untreated controls, 100% = plants have died
From the text: as §1, §5, §3, §6

Digitaria sanguinalis [19] = assay: Post-emergence herbicidal efficacy at 320 g/ha, DIGSA; details: rated visually after about 3 weeks vs untreated controls, 100% = plants have died
From the text: as §1, §2, §3, §4

Echinochloa crus-galli [20] = assay: Post-emergence herbicidal efficacy at 320 g/ha, ECHCG; details: rated visually after about 3 weeks vs untreated controls, 100% = plants have died
From the text: as §1, §2, §3, §4

COc1cnc(Nc2cccc(F)c2-c2cc(C(F)F)no2)nc1 [Example 1-37]
Post-emergence efficacy at 320 g/ha against KCHSC in % (Kochia scoparia [1]): 90%
Post-emergence efficacy at 320 g/ha against AMARE in % (Amaranthus retroflexus [2]): 90%
Post-emergence efficacy at 320 g/ha against VERPE in % (Veronica persica [3]): 90%
Pre-emergence efficacy at 320 g/ha against DIGSA in % (Digitaria sanguinalis [4]): 100%
Pre-emergence efficacy at 320 g/ha against KCHSC in % (Kochia scoparia [5]): 90%
Pre-emergence efficacy at 320 g/ha against AMARE in % (Amaranthus retroflexus [6]): 100%
Pre-emergence efficacy at 320 g/ha against STEME in % (Stellaria media [7]): 100%
Pre-emergence efficacy at 320 g/ha against SETVI in % (Setaria viridis [8]): 100%
Post-emergence efficacy at 320 g/ha against ABUTH in % (Abutilon theophrasti [9]): 100%
Pre-emergence efficacy at 320 g/ha against ABUTH in % (Abutilon theophrasti [10]): 90%
Pre-emergence efficacy at 320 g/ha against POAAN in % (Poa annua): 100%

N#Cc1c(Cl)ccc(Nc2ncc(Cl)cn2)c1-n1cc(C(F)(F)F)cn1 [Example 1-43]
Post-emergence efficacy at 320 g/ha against KCHSC in % (Kochia scoparia [1]): 100%
Post-emergence efficacy at 320 g/ha against AMARE in % (Amaranthus retroflexus [2]): 100%
Post-emergence efficacy at 80 g/ha against AMARE in % (Amaranthus retroflexus [11]): 90%

Cc1cnn(-c2c(C#N)cccc2Nc2ncc(F)cn2)c1 [Example 1-67]
Post-emergence efficacy at 320 g/ha against KCHSC in % (Kochia scoparia [1]): 90%
Post-emergence efficacy at 320 g/ha against AMARE in % (Amaranthus retroflexus [2]): 100%
Post-emergence efficacy at 320 g/ha against VERPE in % (Veronica persica [3]): 100%
Post-emergence efficacy at 320 g/ha against STEME in % (Stellaria media [12]): 100%
Pre-emergence efficacy at 320 g/ha against VERPE in % (Veronica persica [13]): 90%
Post-emergence efficacy at 80 g/ha against VERPE in % (Veronica persica [14]): 90%
Pre-emergence efficacy at 320 g/ha against KCHSC in % (Kochia scoparia [5]): 100%
Pre-emergence efficacy at 320 g/ha against AMARE in % (Amaranthus retroflexus [6]): 100%
Pre-emergence efficacy against SETVI (Setaria viridis [15]): 100%
Pre-emergence efficacy against VIOTR (Viola tricolor): 90%
Post-emergence efficacy at 80 g/ha against KCHSC in % (Kochia scoparia [16]): 90%
Post-emergence efficacy at 80 g/ha against AMARE in % (Amaranthus retroflexus [11]): 100%
Pre-emergence efficacy at 320 g/ha against STEME in % (Stellaria media [7]): 100%
Pre-emergence efficacy at 320 g/ha against SETVI in % (Setaria viridis [8]): 100%
Pre-emergence efficacy at 80 g/ha against AMARE in % (Amaranthus retroflexus [17]): 100%
Post-emergence efficacy at 320 g/ha against ABUTH in % (Abutilon theophrasti [9]): 90%
Pre-emergence efficacy at 320 g/ha against ECHCG in % (Echinochloa crus-galli [18]): 100%
Pre-emergence efficacy at 320 g/ha against POAAN in % (Poa annua): 90%

O=C(CCCC(F)(F)F)c1cccnc1Nc1ncc(Cl)cn1 [Example 2-8]
Post-emergence efficacy at 80 g/ha against VERPE in % (Veronica persica [14]): 90%
Post-emergence efficacy at 80 g/ha against KCHSC in % (Kochia scoparia [16]): 90%
Post-emergence efficacy at 80 g/ha against AMARE in % (Amaranthus retroflexus [11]): 100%

N#Cc1cccc(Nc2ncc(Cl)cn2)c1-c1ccc(F)c(F)c1 [Example 1-29]
Post-emergence efficacy at 320 g/ha against KCHSC in % (Kochia scoparia [1]): 100%
Post-emergence efficacy at 320 g/ha against AMARE in % (Amaranthus retroflexus [2]): 100%
Post-emergence efficacy at 320 g/ha against VERPE in % (Veronica persica [3]): 100%
Post-emergence efficacy at 320 g/ha against STEME in % (Stellaria media [12]): 90%
Post-emergence efficacy at 320 g/ha against DIGSA in % (Digitaria sanguinalis [19]): 90%
Pre-emergence efficacy at 320 g/ha against AMARE in % (Amaranthus retroflexus [6]): 100%

Cc1cccc(Nc2ncc(F)cn2)c1-n1cc(C(F)(F)F)cn1 [Example 1-50]
Post-emergence efficacy at 320 g/ha against AMARE in % (Amaranthus retroflexus [2]): 90%
Post-emergence efficacy at 320 g/ha against VERPE in % (Veronica persica [3]): 90%
Post-emergence efficacy at 320 g/ha against STEME in % (Stellaria media [12]): 90%
Pre-emergence efficacy at 320 g/ha against VERPE in % (Veronica persica [13]): 90%
Pre-emergence efficacy at 320 g/ha against DIGSA in % (Digitaria sanguinalis [4]): 90%
Post-emergence efficacy at 320 g/ha against ECHCG in % (Echinochloa crus-galli [20]): 90%
Pre-emergence efficacy at 320 g/ha against AMARE in % (Amaranthus retroflexus [6]): 100%
Pre-emergence efficacy at 320 g/ha against STEME in % (Stellaria media [7]): 100%
Pre-emergence efficacy at 320 g/ha against SETVI in % (Setaria viridis [8]): 100%
Post-emergence efficacy at 320 g/ha against ABUTH in % (Abutilon theophrasti [9]): 90%
Pre-emergence efficacy at 320 g/ha against ABUTH in % (Abutilon theophrasti [10]): 100%
Pre-emergence efficacy at 320 g/ha against ECHCG in % (Echinochloa crus-galli [18]): 100%
Pre-emergence efficacy at 320 g/ha against POAAN in % (Poa annua): 90%
